# Reference: patent US5137892A, “Quinoline, naphthyridine and pyridobenzoxazine derivatives” (Abbott Laboratories, priority 1990, dated 1992)
# What was measured:
# Type in all cases: cell-based
# [1] = test system: Pseudomonas aeruginosa K599/61; details: P. aeruginosa K599/61; BHI agar dilution, 20-24 hours; unit assumed
# Protocol: (§1) The activity of the compounds of the present invention was tested against a wide variety of bacteria using standard assay procedures. Minimum inhibitory concentrations (MICs) were determined by the agar dilution method, described below, using Brain Heart Infusion agar.
# (§2) Twelve petri dishes were prepared, each containing successive aqueous 2-fold dilutions of the test compounds mixed with 10 mL of sterilized Brain Heart Infusion (BHI) agar. Each plate was inoculated with 100-fold (or 10-fold, for slow-growing strains such as Micrococcus and Streptococcus) dilutions of up to 32 different microorganisms using a Steers replicator block calibrated to deliver approximately 10^4 colony forming units (CFUs). The inoculated plates were incubated at about 35°-37° C. for approximately 20-24 hours. In addition, a control plate, using BHI agar containing no test compound, was prepared and incubated at the beginning and at the end of each test. Ciprofloxacin was used as the reference antibiotic.
# (§3) The MIC was defined as the lowest concentration of test compound yielding no growth (a slight haze or sparsely isolated colonies at the inoculum spot as compared to the growth control contaning no test compound.
# [2] = test system: Streptococcus agalactaciae CMX 508; experiment: In Vitro Antibacterial Activity, agar dilution MIC; details: S. agalactaciae CMX 508; BHI agar dilution, 20-24 hours; unit assumed
# Protocol: as §1, §2, §3
# [3] = test system: Providencia stuartii CMX 640; experiment: In Vitro Antibacterial Activity, agar dilution MIC; details: P. stuartii CMX 640; BHI agar dilution, 20-24 hours; unit assumed
# Protocol: as §1, §2, §3
# [4] = test system: Enterococcus faecium ATCC 8043; experiment: In Vitro Antibacterial Activity, agar dilution MIC; details: E. faecium ATCC 8043; BHI agar dilution, 20-24 hours; unit assumed
# Protocol: as §1, §2, §3
# [5] = test system: Staphylococcus aureus A-5278; experiment: In Vitro Antibacterial Activity, agar dilution MIC; details: S. aureus A-5278; BHI agar dilution, 20-24 hours; unit assumed
# Protocol: as §1, §2, §3
# [6] = test system: Streptococcus pyogenes EES61; experiment: In Vitro Antibacterial Activity, agar dilution MIC; details: S. pyogenes EES61; BHI agar dilution, 20-24 hours; unit assumed
# Protocol: as §1, §2, §3
# Escherichia coli DC-2 = experiment: In Vitro Antibacterial Activity, agar dilution MIC; details: E. coli DC-2; BHI agar dilution, 20-24 hours; unit assumed
# Protocol: as §1, §2, §3
# [7] = test system: Micrococcus luteus ATCC 4698; experiment: In Vitro Antibacterial Activity, agar dilution MIC; details: M. luteus ATCC 4698; BHI agar dilution, 20-24 hours; unit assumed
# Protocol: as §1, §2, §3
# [8] = test system: Staphylococcus aureus ATCC 6538P; experiment: In Vitro Antibacterial Activity, agar dilution MIC; details: S. aureus ATCC 6538P; BHI agar dilution, 20-24 hours; unit assumed
# Protocol: as §1, §2, §3
# [9] = test system: Streptococcus pyogenes 2548 INDUC; experiment: In Vitro Antibacterial Activity, agar dilution MIC; details: S. pyogenes 2548 INDUC; BHI agar dilution, 20-24 hours; unit assumed
# Protocol: as §1, §2, §3
# [10] = test system: Streptococcus bovis A5169; experiment: In Vitro Antibacterial Activity, agar dilution MIC; details: S. bovis A5169; BHI agar dilution, 20-24 hours; unit assumed
# Protocol: as §1, §2, §3
# [11] = test system: Staphylococcus aureus A5177; experiment: In Vitro Antibacterial Activity, agar dilution MIC; details: S. aureus A5177; BHI agar dilution, 20-24 hours; unit assumed
# Protocol: as §1, §2, §3
# Acinetobacter SP CMX 699 = experiment: In Vitro Antibacterial Activity, agar dilution MIC; details: BHI agar dilution, 20-24 hours, unit assumed
# Protocol: as §1, §2, §3
# Escherichia coli H560 = experiment: In Vitro Antibacterial Activity, agar dilution MIC; details: E. coli H560; BHI agar dilution, 20-24 hours; unit assumed
# Protocol: as §1, §2, §3
# [12] = test system: Enterobacter aerogenes ATCC 13048; experiment: In Vitro Antibacterial Activity, agar dilution MIC; details: E. aerogenes ATCC 13048; BHI agar dilution, 20-24 hours; unit assumed
# Protocol: as §1, §2, §3
# [13] = test system: Pseudomonas aeruginosa A5007; experiment: In Vitro Antibacterial Activity, agar dilution MIC; details: P. aeruginosa A5007; BHI agar dilution, 20-24 hours; unit assumed
# Protocol: as §1, §2, §3
# Pseudomonas cepacia 2961 = experiment: In Vitro Antibacterial Activity, agar dilution MIC; details: P. cepacia 2961; BHI agar dilution, 20-24 hours; unit assumed
# Protocol: as §1, §2, §3
# Escherichia coli JUHL = experiment: In Vitro Antibacterial Activity, agar dilution MIC; details: E. coli JUHL; BHI agar dilution, 20-24 hours; unit assumed
# Protocol: as §1, §2, §3
# [14] = test system: Staphylococcus aureus 1775; experiment: In Vitro Antibacterial Activity, agar dilution MIC; details: S. aureus 1775; BHI agar dilution, 20-24 hours; unit assumed
# Protocol: as §1, §2, §3
# [15] = test system: Streptococcus pyogenes 930 CONST; experiment: In Vitro Antibacterial Activity, agar dilution MIC; details: S. pyogenes 930 CONST; BHI agar dilution, 20-24 hours; unit assumed
# Protocol: as §1, §2, §3
# Escherichia coli SS = experiment: In Vitro Antibacterial Activity, agar dilution MIC; details: E. coli SS; BHI agar dilution, 20-24 hours; unit assumed
# Protocol: as §1, §2, §3
# [16] = test system: Pseudomonas aeruginosa K799/WT; experiment: In Vitro Antibacterial Activity, agar dilution MIC; details: P. aeruginosa K799/WT; BHI agar dilution, 20-24 hours; unit assumed
# Protocol: as §1, §2, §3
# Escherichia coli KNK 437 = experiment: In Vitro Antibacterial Activity, agar dilution MIC; details: E. coli KNK 437; BHI agar dilution, 20-24 hours; unit assumed
# Protocol: as §1, §2, §3
# [17] = test system: Pseudomonas aeruginosa BMH10; experiment: In Vitro Antibacterial Activity, agar dilution MIC; details: P. aeruginosa BMH10; BHI agar dilution, 20-24 hours; unit assumed
# Protocol: as §1, §2, §3
# [18] = test system: Micrococcus luteus ATCC 9341; experiment: In Vitro Antibacterial Activity, agar dilution MIC; details: M. luteus ATCC 9341; BHI agar dilution, 20-24 hours; unit assumed
# Protocol: as §1, §2, §3
# [19] = test system: Staphylococcus aureus NCTC 10649; experiment: In Vitro Antibacterial Activity, agar dilution MIC; details: S. aureus NCTC 10649; BHI agar dilution, 20-24 hours; unit assumed
# Protocol: as §1, §2, §3
# [20] = test system: Klebsiella pneumoniae ATCC 8045; experiment: In Vitro Antibacterial Activity, agar dilution MIC; details: K. pneumoniae ATCC 8045; BHI agar dilution, 20-24 hours; unit assumed
# Protocol: as §1, §2, §3
# [21] = test system: Staphylococcus aureus 642A; experiment: In Vitro Antibacterial Activity, agar dilution MIC; details: S. aureus 642A; BHI agar dilution, 20-24 hours; unit assumed
# Protocol: as §1, §2, §3
# [22] = test system: Staphylococcus epidermidis 3519; experiment: In Vitro Antibacterial Activity, agar dilution MIC; details: S. epidermidis 3519; BHI agar dilution, 20-24 hours; unit assumed
# Protocol: as §1, §2, §3
# [23] = test system: Staphylococcus aureus CMX 553; experiment: In Vitro Antibacterial Activity, agar dilution MIC; details: S. aureus CMX 553; BHI agar dilution, 20-24 hours; unit assumed
# Protocol: as §1, §2, §3
# [24] = test system: Pseudomonas aeruginosa 2862; experiment: In Vitro Antibacterial Activity, agar dilution MIC; details: P. aeruginosa 2862; BHI agar dilution, 20-24 hours; unit assumed
# Protocol: as §1, §2, §3
# [25] = test system: Pseudomonas aeruginosa 5263; experiment: In Vitro Antibacterial Activity, agar dilution MIC; details: P. aeruginosa 5263; BHI agar dilution, 20-24 hours; unit assumed
# Protocol: as §1, §2, §3
Structure (SMILES),MIC values [1] [µg/mL],MIC values [2] [µg/mL],MIC values [3] [µg/mL],MIC values [4] [µg/mL],MIC values [5] [µg/mL],MIC values [6] [µg/mL],MIC values (Escherichia coli DC-2) [µg/mL],MIC values [7] [µg/mL],MIC values [8] [µg/mL],MIC values [9] [µg/mL],MIC values [10] [µg/mL],MIC values [11] [µg/mL],MIC values (Acinetobacter SP CMX 699) [µg/mL],MIC values (Escherichia coli H560) [µg/mL],MIC values [12] [µg/mL],MIC values [13] [µg/mL],MIC values (Pseudomonas cepacia 2961) [µg/mL],MIC values (Escherichia coli JUHL) [µg/mL],MIC values [14] [µg/mL],MIC values [15] [µg/mL],also measured
"NC1CN(c2c(F)cc3c(=O)c(C(=O)O)cn(C4CC4)c3c2F)CC12OCCO2 (centres unmarked) [Example 274, 1-Cyclopropyl-6,8-difluoro-7-(9-amino-1,4-dioxa-7-azaspiro[4.4]non-7-yl)-1,4-dihydro-4-oxo-3-quinolinecarboxylic acid]",0.1,0.2,0.78,0.39,0.05,0.2,0.78,0.39,0.05,0.1,0.39,0.1,0.2,0.2,0.2,1.56,6.2,0.05,6.2,0.2,MIC values (Escherichia coli SS): 0.002 µg/mL; MIC values [16]: 1.56 µg/mL; MIC values (Escherichia coli KNK 437): 0.78 µg/mL; MIC values [17]: 1.56 µg/mL; MIC values [18]: 0.39 µg/mL; MIC values [19]: 0.05 µg/mL; MIC values [20]: 0.05 µg/mL; MIC values [21]: 0.1 µg/mL; MIC values [22]: 0.1 µg/mL; MIC values [23]: 0.1 µg/mL
C[C@@H]1COc2c(N3CCC4(CC3)OCCCO4)c(F)cc3c(=O)c(C(=O)O)cn1c23 [Example 330],0.78,0.78,50,0.78,0.1,1.56,12.5,0.78,0.1,0.78,3.1,0.2,3.1,1.56,6.2,12.5,12.5,1.56,6.2,1.56,MIC values [24]: > 100 µg/mL; MIC values (Escherichia coli SS): 0.01 µg/mL; MIC values [16]: 12.5 µg/mL; MIC values (Escherichia coli KNK 437): 12.5 µg/mL; MIC values [17]: 12.5 µg/mL; MIC values [18]: 1.56 µg/mL; MIC values [19]: 0.1 µg/mL; MIC values [25]: > 100 µg/mL; MIC values [20]: 0.78 µg/mL; MIC values [21]: 0.2 µg/mL; MIC values [22]: 0.2 µg/mL; MIC values [23]: 0.2 µg/mL
